Where two headings read alike, the source gives them in different places.
How the values were obtained:
[1] = system: Memory Dysfunction Induced by Cycloheximide Administration; assay: Improvement of cycloheximide-induced memory dysfunction, passive avoidance in mice; format: in vivo, C57BL/b mice; details: for Tested Retention Time (percentage to control group), latency: i.p., twice, 30 min before acquisition and before retention test, memory impairment group = 100; for Effect on memory dysfunction / latency (in words): mouse, in vivo
Procedure: Experimental memory disturbance was induced by administering a protein synthesis inhibiting agent, cycloheximide to C57BL/b male mice of 5 week-age. The memory test was carried out using a passive avoidance learning equipment consisting of two chambers of dark and bright. At first, a memory acquisition process of mice was carried out. In this process, a mouse was released in the bright chamber and the guillotine type door connecting between bright and dark chambers was open. Immediately after the mouse that likes a dark place having entered into the dark chamber, said guillotine type door was closed and an electric shock of 0.4 mA was given to the mouse for 3 seconds through the floor grid. Mice learned through this process to receive electric shock from the floor once they move to the dark chamber. However, the memory formation in mice that received cycloheximide (60 mg/Kg) subcutaneously 30 minutes before this memory acquisition process becomes insufficient. The memory retention test was carried out in accordance with similar procedures with mice which received cycloheximide (memory dysfunction group) and normal mice on the next day that the memory acquisition process was carried out. A time from the release of mice in the bright chamber to the entry into the dark chamber through the guillotine type door opened was measured (latency). The latency was shorter in the memory dysfunction group and the effectiveness of the compounds was determined in terms of a degree of the prolongation of latency. The test compounds were intraperitoneally administered twice in total to the mice each 30 minutes before the memory acquisition process and the memory keeping test.
The effect of the compounds in improving a memory dysfunction was expressed as a percentage in which the latency in the memory impairment group at the memory retention test was regarded as 100, and the results are shown in Table 7.

NMDA-type receptor = assay: Binding assay of NMDA-type receptor (3H-CPP) on rat forebrain crude synaptic membrane; details: for IC50: 10 nM 3H-CPP, pH 7.1, 0° C., 15 min, read-out: Affinity to NMDA-type receptor (3H-CPP), IC50; for Affinity to the NMDA-type-receptor (in words): summary of Table 5
Text: (§1) The receptors of the exitatory amino acid (especially, glutamate) are classified into NMDA type, Quisqualate type and Kainate type. 3H-CPP [3-(2-carboxypiperazin-4-yl)propyl-1-[…]] as the ligand (a radio active substance which has high affinity for the receptor) for the NMDA-type-receptor, ^3 H-AMPA (DL-α-amino-3-hydroxy-5-methylisoxazole-4-propionic acid) as the ligand for the quisqualate-type-receptor, and ^3 H-kainic acid as the ligand for the kainate-type-receptor were used respectively. A sample of the crude synaptic membrane prepared from the forebrain of rat was washed 4 times by Tris hydrochloric acid buffer (pH 7.1) and kept in a freezing condition at -20° C. until its use.
(§2) Samples of the frozen crude synaptic membrane were melted and, after floating on 50 mM Tris hydrochloric acid buffer (pH 7.1), incubated for 30 minutes at 37° C. After the incubation, the synaptic membrane was centrifuged (48,000×g) and washed 3 times with 50 mM Tris hydrochloric acid buffer and used in the test.
(§3) In the binding assay of the NMDA-type-receptor, samples of the synaptic membrane were incubated in the presence or absence of a test compound together with 10 nM ^3 H-CPP in 50 mM Tris hydrochloric acid buffer (pH 7.1, 0° C.) for 15 minutes. The sediment (pellet) containing synapse membrane which was recovered by centrifugation of the incubation solution was rinsed with 50 mM Tris hydrochloric acid buffer (pH 7.1) and dissolved in 0.5 ml of Protosol® (made by New England Nuclear Inc.). In the binding assay of Quisqualate-type-receptor and Kainate-type-receptor, samples of the synapse was incubated in the presence or absence of a test compound in 5 nM ^3 H-AMPA (Quisqualate-type-receptor) or 2 nM ^3 H-Kainic acid (Kainate-type-receptor) together with 50 mM Tris hydrochloric acid buffer (pH 7.1, 0° C.) for 90 minutes. The solution was filtered with Whatman GF/B filter (Whatman®, made by Whatman Inc.) under reduced pressure and the filter was washed 3 times with 50 mM Tris hydrochloric acid buffer. The radioactivity on the filter was measured by a conventional method. The specific binding amount was determined by subtracting the non-specific binding from the total binding, taking the binding in the presence of an excessive non-radioactive L-sodium glutamate (1 mM) as the amount of the non-specfic binding, i.e., the binding to anything other than the receptor. The 50% inhibiting concentration (IC50) of the compound to be tested was determined as the concentration which inhibits 50% of the specific receptor binding of ^3 H-CPP, ^3 H-AMPA or ^3 H-kainic acid.

Kainate-type receptor = assay: Binding assay of Kainate-type receptor (3H-kainic acid) on rat forebrain crude synaptic membrane; details: for Affinity to Kainate-type receptor (3H-KA), IC50: 2 nM 3H-Kainic acid, pH 7.1, 0° C., 90 min; for Affinity to the Kainate-type-receptor (in words): summary of Table 5
Text: as §1, §2
as §3, with “receptor.” for “receptor. The 50% inhibiting concentration (IC50) of the compound to be tested was determined as the concentration which inhibits 50% of the specific receptor binding of ^3 H-CPP, ^3 H-AMPA or ^3 H-kainic acid.”

[2] = system: glutamate receptor (NMDA type, Quisqualate type and Kainate type); assay: Affinity for the glutamate receptors of the brain, 3 sub-types taken together; format: binding, rat; details: summary of Table 5
Text: as §1, §2, §3

[3] = biological target: Quisqualate-type receptor; assay: Binding assay of Quisqualate-type receptor (3H-AMPA) on rat forebrain crude synaptic membrane; details: for IC50: 5 nM 3H-AMPA, pH 7.1, 0° C., 90 min, read-out: Affinity to Quisqulate-type receptor (3H-AMPA), IC50; for Affinity to the Quisqualate-type-receptor (in words): summary of Table 5
Text: as §1, §2
as §3, with “receptor.” for “receptor. The 50% inhibiting concentration (IC50) of the compound to be tested was determined as the concentration which inhibits 50% of the specific receptor binding of ^3 H-CPP, ^3 H-AMPA or ^3 H-kainic acid.”

[4] = system: neurons of rat hippocampus; assay: Excitatory action on neurons of rat hippocampus in vitro (CA1 spike recording in slices); format: cell-based; details: rat hippocampal slices, CA1 pyramidal cell layer, Krebs-Ringer solution 33° C., read-out: Minimum effective concentration to induce firing of hippocampus nervous cell
Procedure: Male Wister rats (body weight: 300 -350 g) were used in the test. After cutting the head of rats, the brain was quickly taken out and […] thickness of the sliced samples of a hippocampus was prepared by a slice cutter. These samples were incubated in a nutrient solution (Krebs-Ringer solution, 33° C.) saturated with a mixed gas of 95% of oxygen gas and 5% of carbon dioxide gas for one or more hours. The test was carried out in the perfusion cisterna with perfusing at the flow speed of 1.5 ml/min. The action potential (spike) in CA1 pyramidal cell layer of the hippocampus was recorded extracellularlly by using a glass electrode filled with 2M NaCl solution. The test compounds were added to the perfusate and the change in number of the spikes with passage of time was counted by a pulse counter and recorded on the recorder. The Krebs-Ringer's solution contains 124 mM of NaCl, 5 mM of KCl, 1.24 mM of KH2 PO4, 1.3 mM of MgSO4, 2.4 mM of CaCL2, 26 mM of […] and 10 mM of glucose.

Question: What does the source list for `N[C@H](Cc1c[nH]oc1=O)C(=O)O` [Compound 72]?
Answer: Tested Retention Time (percentage to control group), latency ([1]; 1 mg/kg): 217 percentage to control group; Tested Retention Time (percentage to control group), latency ([1]; 10 mg/kg, * in table: p < 0.05): 278 percentage to control group; Effect on memory dysfunction / latency (in words) [1]: prolong the latency significantly; IC50 (NMDA-type receptor): 6.2 µM; Affinity to the NMDA-type-receptor (in words) (NMDA-type receptor): high affinity; Affinity to Kainate-type receptor (3H-KA), IC50 (Kainate-type receptor): 37 µM; Affinity to the 3 sub-type receptors (in words) [2]: high affinities to the 3 sub-type receptors; IC50 [3]: 14 µM; minimal effective concentration ([4]; Rattus norvegicus, Neuron): ≥ 300 µM; minimal effective concentration ([4]; listed as 72 (hydrochloride)): 300 µM

Question: `Cc1[nH]oc(=O)c1C[C@H](N)C(=O)O` [Compound 75] was tested. Which “Tested Retention Time (percentage to control group), latency” value ([1]; 1 mg/kg) did it give?
Answer: Its value is 205 percentage to control group.

Question: And the “Tested Retention Time (percentage to control group), latency” value ([1]; 10 mg/kg, * in table: p < 0.05)?
Answer: Its value is 184 percentage to control group.

Question: And the “Effect on memory dysfunction / latency (in words)” value [1]?
Answer: The value was “prolong the latency significantly”.

Question: What about the IC50 (NMDA-type receptor) of the same molecule?
Answer: Its IC50 is 11 µM.

Question: And the “Affinity to Kainate-type receptor (3H-KA), IC50” value (from here on “Affinity … IC50”) (Kainate-type receptor)?
Answer: Its value is 7.3 µM.

Question: What about the “Affinity to the Kainate-type-receptor (in words)” value (Kainate-type receptor) of the same molecule?
Answer: Its value is “strong affinity”.

Question: And the “Affinity to the 3 sub-type receptors (in words)” value [2]?
Answer: Its value is “high affinities to the 3 sub-type receptors”.

Question: What about the IC50 [3] of the same molecule?
Answer: Its IC50 is 0.31 µM.

Question: What about the “Affinity to the Quisqualate-type-receptor (in words)” value [3] of the same molecule?
Answer: The value was “strong affinity”.

Question: And the minimal effective concentration ([4]; Rattus norvegicus, Neuron)?
Answer: Its minimal effective concentration is no less than 1 µM.

Question: Which results are given for `Cc1[nH]oc(=O)c1C[C@@H](N)C(=O)O` [Compound 78]?
Answer: Tested Retention Time (percentage to control group), latency ([1]; 1 mg/kg): 179 percentage to control group; Tested Retention Time (percentage to control group), latency ([1]; 10 mg/kg, * in table: p < 0.05): 222 percentage to control group; Effect on memory dysfunction / latency (in words) [1]: prolong the latency significantly; IC50 (NMDA-type receptor): 68 µM; Affinity to Kainate-type receptor (3H-KA), IC50 (Kainate-type receptor): 98 µM; Affinity to the 3 sub-type receptors (in words) [2]: high affinities to the 3 sub-type receptors; IC50 [3]: 3.9 µM; Affinity to the Quisqualate-type-receptor (in words) [3]: strong affinity; minimal effective concentration ([4]; Rattus norvegicus, Neuron): ≥ 30 µM

Question: For `Cc1[nH]oc(=O)c1[C@@H](N)C(=O)O` [Compound 155], which IC50 (NMDA-type receptor) is on record?
Answer: The IC50 was 8.3 µM.

Question: And the “Affinity to the NMDA-type-receptor (in words)” value (NMDA-type receptor)?
Answer: The value was “high affinity”.

Question: And the “Affinity … IC50” value (Kainate-type receptor)?
Answer: The value was greater than 100 µM.

Question: What about the “Affinity to the 3 sub-type receptors (in words)” value [2] of the same molecule?
Answer: Its value is “differences in their affinities”.

Question: What about the IC50 [3] of the same molecule?
Answer: Its IC50 is greater than 100 µM.

Question: And the minimal effective concentration ([4]; Rattus norvegicus, Neuron)?
Answer: Its minimal effective concentration is no less than 10 µM.

Question: Which IC50 (NMDA-type receptor) does the source give for `N[C@@H](Cc1c(C2CCCC2)[nH]oc1=O)C(=O)O` [Compound 158] here?
Answer: The IC50 was greater than 100 µM.

Question: What about the “Affinity … IC50” value (Kainate-type receptor) of the same molecule?
Answer: Its value is 57 µM.

Question: And the “Affinity to the 3 sub-type receptors (in words)” value [2]?
Answer: Its value is “differences in their affinities”.

Question: And the IC50 [3]?
Answer: The IC50 was 0.31 µM.

Question: What about the “Affinity to the Quisqualate-type-receptor (in words)” value [3] of the same molecule?
Answer: Its value is “strong affinity”.

Question: And the minimal effective concentration ([4]; Rattus norvegicus, Neuron)?
Answer: The minimal effective concentration was no less than 0.3 µM.

Question: Which results are given for `N[C@@H](Cc1c(C2CC2)[nH]oc1=O)C(=O)O` [Compound 173]?
Answer: IC50 (NMDA-type receptor): 13 µM; Affinity to Kainate-type receptor (3H-KA), IC50 (Kainate-type receptor): 3.8 µM; Affinity to the Kainate-type-receptor (in words) (Kainate-type receptor): strong affinity; Affinity to the 3 sub-type receptors (in words) [2]: high affinities to the 3 sub-type receptors; IC50 [3]: 0.12 µM; Affinity to the Quisqualate-type-receptor (in words) [3]: strong affinity; minimal effective concentration ([4]; Rattus norvegicus, Neuron): ≥ 0.3 µM

Question: What does the source list for `CCc1[nH]oc(=O)c1[C@@H](N)C(=O)O` [Compound 180]?
Answer: IC50 (NMDA-type receptor): 7.9 µM; Affinity to the NMDA-type-receptor (in words) (NMDA-type receptor): high affinity; Affinity to Kainate-type receptor (3H-KA), IC50 (Kainate-type receptor): > 100 µM; Affinity to the 3 sub-type receptors (in words) [2]: differences in their affinities; IC50 [3]: > 100 µM; minimal effective concentration ([4]; Rattus norvegicus, Neuron): ≥ 30 µM

Question: How did the “Tested Retention Time (percentage to control group), latency” value ([1]; 10 mg/kg, * in table: p < 0.05) turn out when `N[C@@H](CCC(=O)O)C(=O)O` [Glutamic acid, reference compound] was run?
Answer: Its value is 101 percentage to control group.

Reference: patent US5021439A, “Cerebral function ameliorating agents related to Tan-950 A” (priority 1988, dated 1991)
